Columns and labels:
[1] = biological target: T1, human vasopressin V1a receptor (Homo sapiens, UniProt P37288); experiment: Human vasopressin V1a receptor binding assay; conditions: 1321N1 cell membranes, [3H]vasopressin; read-out: Ki (nM) on hV1a cell line
Summary of the method: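 Ki values come from IC50 via Cheng-Prusoff (KD from prior Scatchard), averaged over at least two independent runs. Human V1a membranes were incubated with radioligand 60 minutes at 27° C., bound ligand collected by filtration; (Arg^8)-vasopressin at 1.2×10^−6 M defined non-specific binding.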

[2] = biological target: T1, human vasopressin V1a receptor; experiment: Functional assay on human vasopressin V1a receptor expressing cell line (intracellular Ca2+ fluorescence); type: cell-based; conditions: 1321N1 cells, (Arg8)-vasopressin at EC80; read-out: IC50 (nM) on hV1a cell line

T1 sequence (P37288 whole entry): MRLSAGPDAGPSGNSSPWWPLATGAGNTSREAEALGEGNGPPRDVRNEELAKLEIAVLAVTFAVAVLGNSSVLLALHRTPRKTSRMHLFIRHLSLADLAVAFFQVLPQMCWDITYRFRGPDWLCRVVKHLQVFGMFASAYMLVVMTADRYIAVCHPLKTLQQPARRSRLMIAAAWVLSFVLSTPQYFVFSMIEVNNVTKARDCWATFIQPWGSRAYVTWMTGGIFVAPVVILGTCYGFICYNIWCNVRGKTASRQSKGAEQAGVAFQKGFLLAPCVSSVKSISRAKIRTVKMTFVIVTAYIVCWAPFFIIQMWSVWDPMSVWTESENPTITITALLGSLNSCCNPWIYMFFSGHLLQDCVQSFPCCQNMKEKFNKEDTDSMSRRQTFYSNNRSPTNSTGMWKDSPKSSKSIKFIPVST

| SMILES | Ki [1] [nM] | IC50 [2] [nM] |
| --- | --- | --- |
| CC(C)(O)C(=O)N[C@@H]1Cc2cc(Cl)ccc2-n2c(nnc2[C@H]2CC[C@H](Oc3ccccn3)CC2)C1 [Example 169, N-{(5R)-8-chloro-1-[trans-4-(pyridin-2-yloxy)cyclohexyl]-5,6-dihydro-4H-[1,2,4]triazolo[4,3-a][1]benzazepin-5-yl}-2-hydroxy-2-methylpropanamide] | 0.9 | 2.3 |
| Clc1ccc2c(c1)CC1(Cc3nnc(N4CCN(c5ccccn5)CC4)n3-2)OCCO1 [Example 171, 8′-chloro-1′-[4-(pyridin-2-yl)piperazin-1-yl]-4′H,6′H-spiro[1,3-dioxolane-2,5′-[1,2,4]triazolo[4,3-a][1]benzazepine]] | 0.6 | 1.2 |
| OC1Cc2cc(Cl)ccc2-n2c(nnc2N2CCC3(CC2)OCc2ccccc23)C1 (stereo not drawn) [Example 172, 8-chloro-1-(1′H,3H-spiro[2-benzofuran-1,4′-piperidin]-1′-yl)-5,6-dihydro-4H-[1,2,4]triazolo[4,3-a][1]benzazepin-5-ol] | 0.7 | 5.6 |
| OC1Cc2cc(Cl)ccc2-n2c(nnc2N2CCC(c3ncccc3Cl)CC2)C1 (stereo not drawn) [Example 173, 8-chloro-1-[4-(3-chloropyridin-2-yl)piperidin-1-yl]-5,6-dihydro-4H-[1,2,4]triazolo[4,3-a][1]benzazepin-5-ol] | 1.6 | 11 |
| CN(C)CCC(=O)N[C@@H]1Cc2cc(Cl)ccc2-n2c(nnc2[C@H]2CC[C@H](Oc3ccccn3)CC2)C1 [Example 179, N-{(5R)-8-chloro-1-[trans-4-(pyridin-2-yloxy)cyclohexyl]-5,6-dihydro-4H-[1,2,4]triazolo[4,3-a][1]benzazepin-5-yl}-N^3,N^3-dimethyl-β-alaninamide] | 0.2 | 1.4 |
| O=C(N[C@@H]1Cc2cc(Cl)ccc2-n2c(nnc2[C@H]2CC[C@H](Oc3ccccn3)CC2)C1)C1CCOCC1 [Example 180, N-{(5R)-8-chloro-1-[trans-4-(pyridin-2-yloxy)cyclohexyl]-5,6-dihydro-4H-[1,2,4]triazolo[4,3-a][1]benzazepin-5-yl}tetrahydro-2H-pyran-4-carboxamide] | 1.1 | 4.1 |
| OC1Cc2cc(Cl)ccc2-n2c(nnc2N2CCC(Oc3ccccn3)CC2)C1 (stereo not drawn) [Example 181, 8-chloro-1-[4-(pyridin-2-yloxy)piperidin-1-yl]-5,6-dihydro-4H-[1,2,4]triazolo[4,3-a][1]benzazepin-5-ol] | 0.5 | 1.8 |

Continued, values first:

| Ki [1] [nM] | IC50 [2] [nM] | SMILES |
| --- | --- | --- |
| 15.3 | 38 | COC1Cc2cc(Cl)ccc2-n2c(nnc2C2CCN(C3CCOCC3)CC2)C1 (stereo not drawn) [Example 170, 8-chloro-5-methoxy-1-[1-(tetrahydro-2H-pyran-4-yl)piperidin-4-yl]-5,6-dihydro-4H-[1,2,4]triazolo[4,3-a][1]benzazepine] |
| 0.7 | 3 | Clc1ccc2c(c1)C[C@@H](N1CCCC1)Cc1nnc([C@H]3CC[C@H](Oc4ccccn4)CC3)n1-2 [Example 174, (5R)-8-chloro-1-[trans-4-pyridin-2-loxcyclohexyl]-5-(pyrrolidin-1-yl)-5,6-dihydro-4H-[1,2,4]triazolo[4,3-a][1]benzazepine] |
| 50.5 | 323 | COC1Cc2cc(Cl)ccc2-n2c(nnc2C2CCN([C@H]3CCOC3)CC2)C1 (stereo partly drawn) [Example 175, 8-chloro-5-methoxy-1-{1-[(3S)-tetrahydrofuran-3-yl]piperidin-4-yl}-5,6-dihydro-4H-[1,2,4]triazolo[4,3-a][1]benzazepine] |
| 3.9 | 19 | COC1Cc2cc(Cl)ccc2-n2c(nnc2C2CCN([C@@H]3CCOC3)CC2)C1 (stereo partly drawn) [Example 178, 8-chloro-5-methoxy-1-{1-[(3R)-tetrahydrofuran-3-yl]piperidin-4-yl}-5,6-dihydro-4H-[1,2,4]triazolo[4,3-a][1]benzazepine] |
| 19 | 416 | COC1Cc2cc(Cl)ccc2-n2c(nnc2[C@H]2CC[C@H](N3CCN(C)CC3)CC2)C1 (stereo partly drawn) [Example 182, 8-chloro-5-methoxy-1-[trans-4-(4-methylpiperazin-1-yl)cyclohexyl]-5,6-dihydro-4H-[1,2,4]triazolo[4,3-a][1]benzazepine] |

From patent publication US11298363B2, “Triazolobenzazepines as vasopressin V1a receptor antagonists” (RICHTER GEDEON NYRT., priority 2017, dated 2022)
